Source: patent US7091024B2, “Enzyme PDE XVI” (Pfizer Inc., priority 1999, dated 2006)
Where “and” joins values, the source holds several entries; their conditions need not be identical. Equal values may be shown once.

Legend:
[1] = biological target: T1, PDE_XIV (Homo sapiens, UniProt Q9NP56); experiment: Phosphodiesterase inhibition studies on purified expressed PDE_XIV (cAMP SPA); assay type: biochemical; conditions: for IC50: N = 2, read-out: IC50 FOR PDEXIV (μM) (N = 2)
T1 construct: made in house; host or cells: Sf9 insect cells (baculovirus, pFASTBAC-FLAG)
Procedure: This allows the specific retention on the column of the recombinant material (since this is fused to the FLAG epitope) whilst the endogenous insect proteins are washed off in the eluate. The recombinant material is then washed off under conditions of low pH. […] The purity of the material is assessed by coomassie staining after sodium dodecyl sulphate-polyacrylamide gel electrophoresis (SDS-PAGE) or through western blotting onto a nitro-cellulose membrane of an unstained SDS-PAGE (containing recombinant PDE) and analysis with the IgG1 monoclonal anti-FLAG epitope antibody. The PDE-FLAG fusion protein is detected due to the interaction between the anti-FLAG antibody and the FLAG epitope which is fused to the PDE protein. The phosphodiesterase activity of the purified PDE-FLAG fusion protein was assayed using a commercially available SPA (scintillation proximity assay) kit (Amersham-Amersham place, Little Chalfont, Bucks, HP7 9NA UK) for either cAMP and/or cGMP hydrolytic activity.

[2] = biological target: T1, PDE_XIV; experiment: cAMP Scintillation Proximity Assays on purified expressed PDE_XIV (substrate hydrolysis); assay type: biochemical

T1 sequence (Q9NP56 whole entry): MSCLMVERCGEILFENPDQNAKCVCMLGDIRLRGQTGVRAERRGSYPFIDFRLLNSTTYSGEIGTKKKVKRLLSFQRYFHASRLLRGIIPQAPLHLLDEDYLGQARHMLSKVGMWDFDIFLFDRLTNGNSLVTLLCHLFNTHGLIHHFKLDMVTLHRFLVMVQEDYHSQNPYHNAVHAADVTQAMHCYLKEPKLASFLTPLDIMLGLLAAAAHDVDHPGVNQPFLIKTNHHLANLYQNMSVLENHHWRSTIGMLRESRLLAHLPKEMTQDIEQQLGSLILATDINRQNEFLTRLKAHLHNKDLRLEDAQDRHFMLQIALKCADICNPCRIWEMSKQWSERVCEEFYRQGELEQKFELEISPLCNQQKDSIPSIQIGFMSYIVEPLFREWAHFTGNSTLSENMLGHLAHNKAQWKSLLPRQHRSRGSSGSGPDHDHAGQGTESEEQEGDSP

| Compound | IC50 [1] | sensitivity of PDE_XIV to the PDE inhibitor [1] | activity of PDE_XIV against the cyclic nucleotide [2] |
| --- | --- | --- | --- |
| OCCN(CCO)c1nc(N2CCCCC2)c2nc(N(CCO)CCO)nc(N3CCCCC3)c2n1 [Dipyridamole] | 10.7 µM |  |  |
| COc1ccc(C2CNC(=O)C2)cc1OC1CCCC1 (stereo not drawn) [Rolipram] | > 30 µM | not to be sensitive |  |
| Cc1[nH]c(=O)c(C#N)cc1-c1ccncc1 [Milrinone] | > 30 µM | not to be sensitive |  |
| CC(C)Cn1c(=O)n(C)c(=O)c2[nH]cnc21 [IBMX] | 9.32 µM and 9.72 µM |  |  |
| Nc1nc2c(ncn2[C@@H]2O[C@@H]3COP(=O)(O)O[C@H]3[C@H]2O)c(=O)[nH]1 [cGMP] |  |  | no activity |
| COc1ccc([C@]2(C#N)CC[C@@H](C(=O)O)CC2)cc1OC1CCCC1 [Ariflo] | > 30 µM | not to be sensitive |  |
